± gives the expanded uncertainty stated by the source.
Columns and labels:
[1] = Crystal; DTA
[2] = Molar enthalpy of transition or fusion; settings: Crystal; DSC

SMILES: CC(C)(C)C(=O)C(Oc1ccc(Cl)cc1)n1ccnc1 (configuration not stated) [1-(4-Chlorophenoxy)-1-(imidazol-1-yl)-3,3-dimethylbutanone]
- Triple point temperature [1]: 372 ± 0.7 K
- Molar enthalpy of transition or fusion [2]: 6.93 ± 0.239 kcal/mol

— the NIST ThermoML archive (doi:10.1016/j.jct.2014.04.011)
